Source: patent US9119853B2, “Sanglifehrin based compounds” (priority 2010, dated 2015)
pEC50, pIC50: −log10 of the molar value. ≈ marks a conversion by molar mass, not a printed value. Read-outs that look alike come from different tables or passages of the source.

Experiments:
[1] = system: HCV genotype 1b I389luc-ubi-neo/NS3-3'/5.1 replicon in Huh5.2 cells; assay: microbe, parasite or virus in culture; type: cell-based, Hepatitis C Virus
Solubility in PBS pH 7.4 = settings: for solubility compared to sanglifehrin A (5) and cyclosporine A (1) (in words): PBS pH 7.4; for solubility at 4 h: PBS, pH 7.4, aqueous buffer, kinetic from dmso stock
[2] = Anti-metabolic effect (MTS) in the replicon cell line; settings: human
[3] = pH 7.4
[4] = system: HBV in HepG2 2.2.15 cells; assay: HBV antiviral assay (HBV DNA by qPCR); type: cell-based, Hepatitis B Virus; settings: Hepatitis B virus, HepG2 2.2.15, […], read-out: HBV EC50
[5] = target: T1, GST-CypD / Con1 NS5A-His complex (Homo sapiens, UniProt P30405); assay: ELISA analysis of Cyp-NS5A interaction (CypD-NS5A disruption)
T1 sequence (P30405 30-207, one chain of several): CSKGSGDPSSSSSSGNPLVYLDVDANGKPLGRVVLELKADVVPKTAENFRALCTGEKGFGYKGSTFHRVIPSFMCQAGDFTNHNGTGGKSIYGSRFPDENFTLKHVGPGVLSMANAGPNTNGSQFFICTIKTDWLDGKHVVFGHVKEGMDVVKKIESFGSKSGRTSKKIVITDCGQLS

[6] = Cell viability (dye uptake) in the HBV assay; type: cell-based; settings: human, HepG2 2.2.15 cells; read-out: TC50
Protocol: Antiviral efficacy against HBV may be tested as follows: HepG2 2.2.15 cells are plated in 96-well microtiter plates. After 16-24 hours the confluent monolayer of HepG2 2.2.15 cells is washed and the medium is replaced with complete medium containing various concentrations of a test compound in triplicate (eg six half-log concentrations). Three days later the culture medium is replaced with fresh medium containing the appropriately diluted test compounds. Six days following the initial administration of the test compound, the cell culture supernatant is collected, treated with pronase and then used in a real-time quantitative TaqMan qPCR assay. The PCR-amplified HBV DNA is detected in real-time by monitoring increases in fluorescence signals that result from the exonucleolytic degradation of a quenched fluorescent probe molecule that hybridizes to the amplified HBV DNA. For each PCR amplification, a standard curve is simultaneously generated using dilutions of purified HBV DNA. Antiviral activity is calculated from the reduction in HBV DNA levels (IC50). A dye uptake assay is then employed to measure cell viability, which is used to calculate toxicity (TC50). The therapeutic index (TI) is calculated as TC50/IC50.

[7] = system: HIV (pNL4.3-GFP / pNL4.3-BaL-GFP) in macrophages; assay: microbe, parasite or virus in culture; type: cell-based; settings: Human immunodeficiency virus 1, BAL, Macrophage, 48 h, read-out: Macrophages EC50
[8] = system: peripheral blood mononuclear cells (PBMC); assay: Mixed lymphocyte reaction (MLR) for immunosuppressant activity; type: cell-based, human; settings: for pIC50: Homo sapiens, PBMC, read-out: Human MLR IC50; for immunosuppressive activity (in words): MLR
[9] = system: HIV (pNL4.3-GFP / pNL4.3-BaL-GFP) in CD4+ HeLa cells; assay: microbe, parasite or virus in culture; type: cell-based; settings: for pEC50: Human immunodeficiency virus 1, BAL, HeLa, 48 h, read-out: HeLa cells EC50; for potency at inhibiting HIV infection compared to cyclosporine A, 1 (in words): four cell types
[10] = target: T1, GST-CypD / Con1 NS5A-His complex; assay: biochemical
[11] = system: HIV (pNL4.3-GFP / pNL4.3-BaL-GFP) in Jurkat cells; assay: microbe, parasite or virus in culture; type: cell-based; settings: Human immunodeficiency virus 1, BAL, 48 h, read-out: T cells EC50
[12] = system: HIV (pNL4.3-GFP / pNL4.3-BaL-GFP) in CD4+ T-lymphocytes; assay: microbe, parasite or virus in culture; type: cell-based; settings: Human immunodeficiency virus 1, BAL, T-lymphocyte, 48 h, read-out: CD4+ T-lymphocytes EC50
physchem = settings: pH 7.4, aqueous buffer, kinetic from dmso stock
Huh5.2 cells = assay: Anti-metabolic effect (MTS) in the replicon cell line; settings: Huh5.2 cells, MTS, 72 hours
[13] = Hepatitis C virus, Huh-5-2, 72 h

CON(C)C(=O)/C=C/C=C(\C)[C@@H]1C/C=C/C=C/[C@H](O)[C@H](C)[C@@H](O)[C@@H](CCC(C)=O)C(=O)N[C@@H](C(C)C)C(=O)N[C@@H](Cc2cccc(O)c2)C(=O)N2CCCC(N2)C(=O)O1 (some centres unmarked) [compound 10]
Selectivity index (CC50/EC50) [1]: >617
potency in the Huh5.2 replicon assay (in words) [1]: very potent
pEC50 [1, 13]: 6.79
EC90 [1, 13]: 921 nM
solubility compared to sanglifehrin A (5) and cyclosporine A (1) (in words) (Solubility in PBS pH 7.4): increased solubility
solubility at 4 h (Solubility in PBS pH 7.4): > 100 µM
CC50 at 72 h [2]: > 100000 nM

CCN(CC)C(=O)/C=C/C=C(\C)[C@@H]1C/C=C/C=C/[C@H](O)[C@H](C)[C@@H](O)[C@@H](CCC(C)=O)C(=O)N[C@@H](C(C)C)C(=O)N[C@@H](Cc2cccc(O)c2)C(=O)N2CCCC(N2)C(=O)O1 (some centres unmarked) [compound 13]
Selectivity index (CC50/EC50) [1]: >490
potency in the Huh5.2 replicon assay (in words) [1]: very potent
pEC50 [1, 13]: 6.69
EC90 [1, 13]: 1200 nM
solubility compared to sanglifehrin A (5) and cyclosporine A (1) (in words) (Solubility in PBS pH 7.4): increased solubility
solubility at 4 h (Solubility in PBS pH 7.4): > 100 µM
CC50 at 72 h [2]: > 100000 nM

CC(=O)CC[C@H]1C(=O)N[C@@H](C(C)C)C(=O)N[C@@H](Cc2cccc(O)c2)C(=O)N2CCCC(N2)C(=O)O[C@H](/C(C)=C/C=C/C(=O)NC(C)C)C/C=C/C=C/[C@H](O)[C@H](C)[C@H]1O (some centres unmarked) [compound 16]
Selectivity index (CC50/EC50) [1]: >179
potency in the Huh5.2 replicon assay (in words) [1]: very potent
pEC50 [1, 13]: 6.25
EC90 [1, 13]: 4600 nM
CC50 at 72 h [2]: > 100000 nM

CNC(=O)/C=C/C=C(\C)[C@@H]1C/C=C/C=C/[C@H](O)[C@H](C)[C@@H](O)[C@@H](CCC(C)=O)C(=O)N[C@@H](C(C)C)C(=O)N[C@@H](Cc2cccc(O)c2)C(=O)N2CCCC(N2)C(=O)O1 (some centres unmarked) [compound 19]
Selectivity index (CC50/EC50) [1]: >80
pEC50 [1, 13]: 5.10
EC90 [1, 13]: 60200 nM
solubility compared to sanglifehrin A (5) and cyclosporine A (1) (in words) (Solubility in PBS pH 7.4): increased solubility
solubility at 4 h (Solubility in PBS pH 7.4): > 100 µM
CC50 at 72 h [2]: > 100000 nM

CC(=O)CC[C@H]1C(=O)N[C@@H](C(C)C)C(=O)N[C@@H](Cc2cccc(O)c2)C(=O)N2CCCC(N2)C(=O)O[C@H](/C(C)=C/C=C/C(=O)N(C)C)C/C=C/C=C/[C@H](O)[C@H](C)[C@H]1O (some centres unmarked) [compound 22]
Selectivity index (CC50/EC50) [1]: >287
potency in the Huh5.2 replicon assay (in words) [1]: very potent
pEC50 [1, 13]: 6.46
EC90 [1, 13]: 6200 nM
solubility compared to sanglifehrin A (5) and cyclosporine A (1) (in words) (Solubility in PBS pH 7.4): increased solubility
solubility at 4 h (Solubility in PBS pH 7.4): > 100 µM
CC50 at 72 h [2]: > 100000 nM

C=CCNC(=O)/C=C/C=C(\C)[C@@H]1C/C=C/C=C/[C@H](O)[C@H](C)[C@@H](O)[C@@H](CCC(C)=O)C(=O)N[C@@H](C(C)C)C(=O)N[C@@H](Cc2cccc(O)c2)C(=O)N2CCCC(N2)C(=O)O1 (some centres unmarked) [compound 25]
pEC50 [1, 13]: 5.80
EC90 [1, 13]: 8500 nM
solubility compared to sanglifehrin A (5) and cyclosporine A (1) (in words) (Solubility in PBS pH 7.4): increased solubility
Solubility [3]: 96 µM (≈ 78.7 µg/mL)
CC50 at 72 h [2]: 48400 nM

C/C=C/C[C@H]1C(=O)N[C@@H](C(C)C)C(=O)N[C@@H](Cc2cccc(O)c2)C(=O)N2CCCC(N2)C(=O)O[C@H](/C(C)=C/C=C/C(=O)N(C)OC)C/C=C/C=C/[C@H](O)[C@H](C)[C@H]1O (some centres unmarked) [compound 28]
Selectivity index (CC50/EC50) [1]: 28.2
potency in the Huh5.2 replicon assay (in words) [1]: very potent
pEC50 [1, 13]: 6.20
EC90 [1, 13]: 4000 nM
solubility compared to sanglifehrin A (5) and cyclosporine A (1) (in words) (Solubility in PBS pH 7.4): increased solubility
solubility at 4 h (Solubility in PBS pH 7.4): 78 µM (≈ 63 µg/mL)
CC50 at 72 h [2]: 17700 nM

CC(=O)CC[C@H]1C(=O)N[C@@H](C(C)C)C(=O)N[C@@H](Cc2cccc(O)c2)C(=O)N2CCCC(N2)C(=O)O[C@H](/C(C)=C/C=C/C(=O)N(CC(C)C)CC(C)C)C/C=C/C=C/[C@H](O)[C@H](C)[C@H]1O (some centres unmarked) [compound 32]
potency in the Huh5.2 replicon assay (in words) [1]: very potent
pEC50 [1, 13]: 6.51
EC90 [1, 13]: 1100 nM
Solubility [3]: 33 µM (≈ 29.4 µg/mL)
CC50 at 72 h [2]: 2100 nM

CC(=O)CC[C@H]1C(=O)N[C@@H](C(C)C)C(=O)N[C@@H](Cc2cccc(O)c2)C(=O)N2CCCC(N2)C(=O)O[C@H](/C(C)=C/C=C/C(=O)Nc2ccc(-c3ccccc3)cc2)C/C=C/C=C/[C@H](O)[C@H](C)[C@H]1O (some centres unmarked) [compound 41]
Selectivity index (CC50/EC50) [1]: >481
potency in the Huh5.2 replicon assay (in words) [1]: very potent
pEC50 [1, 13]: 6.68
EC90 [1, 13]: 1100 nM
CC50 at 72 h [2]: > 100000 nM

CC(=O)CC[C@H]1C(=O)N[C@@H](C(C)C)C(=O)N[C@@H](Cc2cccc(O)c2)C(=O)N2CCCC(N2)C(=O)O[C@H](/C(C)=C/C=C/C(=O)N(C)C2CCCCC2)C/C=C/C=C/[C@H](O)[C@H](C)[C@H]1O (some centres unmarked) [compound 45]
Selectivity index (CC50/EC50) [1]: 449
potency in the Huh5.2 replicon assay (in words) [1]: very potent
pEC50 [1, 13]: 6.83
EC90 [1, 13]: 1900 nM
CC50 at 72 h [2]: 66400 nM

CC(=O)CC[C@H]1C(=O)N[C@@H](C(C)C)C(=O)N[C@@H](Cc2cccc(O)c2)C(=O)N2CCCC(N2)C(=O)O[C@H](/C(C)=C/C=C/C(=O)Nc2ccccn2)C/C=C/C=C/[C@H](O)[C@H](C)[C@H]1O (some centres unmarked) [compound 48]
potency in the Huh5.2 replicon assay (in words) [1]: very potent
pEC50 [1, 13]: 6.78
EC90 [1, 13]: 737 nM
pEC50 [4]: < 4.49
disruption of the CypD-NS5A complex (in words) [5]: potent disruption
CC50 at 6 days [6]: > 32000 nM
pEC50 [7]: 6.68
pIC50 [8]: 5.97
immunosuppressive activity (in words) [8]: very low levels of immunosuppressive activity
pEC50 [9]: 6.60
potency at inhibiting HIV infection compared to cyclosporine A, 1 (in words) [9]: significantly more potent
pIC50 [10]: 6.42
CC50 at 72 h [2]: 39700 nM
pEC50 [11]: 6.96
pEC50 [12]: 6.85

CC(=O)CC[C@H]1C(=O)N[C@@H](C(C)C)C(=O)N[C@@H](Cc2cccc(O)c2)C(=O)N2CCCC(N2)C(=O)O[C@H](/C(C)=C/C=C/C(=O)NC2CCCCC2)C/C=C/C=C/[C@H](O)[C@H](C)[C@H]1O (some centres unmarked) [compound 51]
Selectivity index (CC50/EC50) [1]: >298
potency in the Huh5.2 replicon assay (in words) [1]: very potent
pEC50 [1, 13]: 6.47
EC90 [1, 13]: 4200 nM
CC50 at 72 h [2]: > 100000 nM

CC(=O)CC[C@H]1C(=O)N[C@@H](C(C)C)C(=O)N[C@@H](Cc2cccc(O)c2)C(=O)N2CCCC(N2)C(=O)O[C@H](/C(C)=C/C=C/C(=O)N2CCCCO2)C/C=C/C=C/[C@H](O)[C@H](C)[C@H]1O (some centres unmarked) [compound 55]
Solubility (physchem): > 100 µM
Selectivity index (CC50/EC50) [1]: >800
potency in the Huh5.2 replicon assay (in words) [1]: very potent
pEC50 [1, 13]: 6.90
EC90 [1, 13]: 691 nM
disruption of the CypD-NS5A complex (in words) [5]: potent disruption
pEC50 [7]: 6.64
pIC50 [8]: 5.84
immunosuppressive activity (in words) [8]: very low levels of immunosuppressive activity
pEC50 [9]: 6.51
potency at inhibiting HIV infection compared to cyclosporine A, 1 (in words) [9]: significantly more potent
pIC50 [10]: 6.64
CC50 at 72 h [2]: > 100000 nM
pEC50 [11]: 6.66
pEC50 [12]: 6.82

CC(=O)CC[C@H]1C(=O)N[C@@H](C(C)C)C(=O)N[C@@H](Cc2cccc(O)c2)C(=O)N2CCC[C@H](N2)C(=O)O[C@H](/C(C)=C/CO)C/C=C/C=C/[C@H](O)[C@H](C)[C@H]1O [hydroxymacrocycle, 6, reference compound]
potency in the Huh5.2 replicon assay (in words) [1]: less potent
pEC50 ([1]; read-out: EC50): 5.08
EC90 ([1]; read-out: EC90): 39700 nM
CC50 (Huh5.2 cells): 83600 nM
